Measurements reported in patent publication US9555014B2, “Therapeutic regimens” (Radius Health, Inc., priority 2010, dated 2017).
Structures can show the parent of a compound that is named as a salt. Where two headings read alike, the source gives them in different places.

Test: Phase 2a study: trough and peak plasma drug levels
Assay type: in vivo, human (postmenopausal women)
Settings: for concentration at 8 day / concentration at 15 day / concentration at 29 day: female, human, plasma; for concentration at 29 day: Day 29, ITT
From the text: This is a randomized, placebo-controlled, double-blind, parallel-group, Phase 2, multi-center, dose-finding study to evaluate the effects of (R)-6-(2-(ethyl(4-(2-(ethylamino)ethyl)benzyl)amino)-4-methoxyphenyl)-5,6,7,8-tetrahydronaphthalen-2-ol dihydrochloride in the treatment of vasomotor symptoms in postmenopausal women.
A total of 100 eligible patients will be randomized to receive one of 5 blinded treatment regimens. (R)-6-(2-(ethyl(4-(2-(ethylamino)ethyl)benzyl)amino)-4-methoxyphenyl)-5,6,7,8-tetrahydronaphthalen-2-ol dihydrochloride at doses 0, 10, 25, 50 or 100 mg will be dosed for 28-days.
(R)-6-(2-(ethyl(4-(2-(ethylamino)ethyl)benzyl)amino)-4-methoxyphenyl)-5,6,7,8-tetrahydronaphthalen-2-ol dihydrochloride was provided by sponsor in capsule form for oral administration. All doses (0, 10, 25, 50 and 100 mg) were provided as identical presentations. Each patient was provided with 2 containers of 28-capsules each at the start of treatment and took one capsule from each container every day for 28-days. Placebo contained the same excipients as active medication, but without (R)-6-(2-(ethyl(4-(2-(ethylamino)ethyl)benzyl)amino)-4-methoxyphenyl)-5,6,7,8-tetrahydronaphthalen-2-ol dihydrochloride. The patients were instructed to take the capsules orally in the fasted state (morning).
All efficacy endpoints were to be analyzed for the ITT and PP populations, with the exception of the drug levels (analyzed for the ITT population only). Safety endpoints were to be analyzed for the Safety/ITT population.
Values for ranges of steady state trough levels and steady state Cmax can be derived from Tables 4 and 5. Steady state values are the values listed for days 8 and 15. The ranges were derived from the mean number listed in the table plus or minus one standard deviation (the number in parenthesis after each mean value). For example a steady state trough level ranging from 0.11 ng/mL to 0.79 ng/mL is derived from Table 4 by taking the trough level for 10 mg, 0.45 ng/mL, adding 0.34 to get the upper value of 0.79 and subtracting 0.34 to get the lover value of 0.11. Other ranges for steady state trough levels and ranges for Cmax can be similarly derived from the data in Tables 4 and 5.

Peak Level of drug (10 mg daily PO, Day 1, ITT, mean (SD)): 0.56 (0.34) ng/mL
Peak Level of drug (10 mg daily PO, Day 8, ITT, mean (SD)): 0.92 (0.52) ng/mL
Peak Level of drug (10 mg daily PO, Day 15, ITT, mean (SD)): 0.92 (0.69) ng/mL
Peak Level of drug (25 mg daily PO, Day 1, ITT, mean (SD)): 1.41 (0.63) ng/mL
Peak Level of drug (25 mg daily PO, Day 8, ITT, mean (SD)): 2.53 (0.74) ng/mL
Peak Level of drug (25 mg daily PO, Day 15, ITT, mean (SD)): 2.97 (1.09) ng/mL
Peak Level of drug (50 mg daily PO, Day 1, ITT, mean (SD)): 2.83 (1.72) ng/mL
Peak Level of drug (50 mg daily PO, Day 8, ITT, mean (SD)): 6.36 (2.58) ng/mL
Peak Level of drug (50 mg daily PO, Day 15, ITT, mean (SD)): 6.22 (3.46) ng/mL
Peak Level of drug (100 mg daily PO, Day 1, ITT, mean (SD)): 8.39 (4.04) ng/mL
Peak Level of drug (100 mg daily PO, Day 8, ITT, mean (SD)): 15.47 (7.14) ng/mL
Peak Level of drug (100 mg daily PO, Day 15, ITT, mean (SD)): 12.76 (5.28) ng/mL
concentration at 8 day (oral, 10 mg, derived from Table 4 (0.45 ± 0.34, Day 8), read-out: steady state trough level range (mean plus or minus one standard deviation)): 0.11 to 0.79 ng/mL
concentration at 8 day (10 mg daily PO, Day 8, ITT, mean (SD), read-out: Mean Trough Level of Drug): 0.45 ng/mL
concentration at 15 day (10 mg daily PO, Day 15, ITT, mean (SD), read-out: Mean Trough Level of Drug): 0.49 ng/mL
concentration at 29 day (10 mg daily PO, mean (SD), read-out: Mean Trough Level of Drug): 0.34 ng/mL
concentration at 8 day (25 mg daily PO, Day 8, ITT, mean (SD), read-out: Mean Trough Level of Drug): 1.33 ng/mL
concentration at 15 day (25 mg daily PO, Day 15, ITT, mean (SD), read-out: Mean Trough Level of Drug): 1.49 ng/mL
concentration at 29 day (25 mg daily PO, mean (SD), read-out: Mean Trough Level of Drug): 1.18 ng/mL
concentration at 8 day (50 mg daily PO, Day 8, ITT, mean (SD), read-out: Mean Trough Level of Drug): 3.11 ng/mL
concentration at 15 day (50 mg daily PO, Day 15, ITT, mean (SD), read-out: Mean Trough Level of Drug): 3.39 ng/mL
concentration at 29 day (50 mg daily PO, mean (SD), read-out: Mean Trough Level of Drug): 3.23 ng/mL
concentration at 8 day (100 mg daily PO, Day 8, ITT, mean (SD), read-out: Mean Trough Level of Drug): 6.91 ng/mL
concentration at 15 day (100 mg daily PO, Day 15, ITT, mean (SD), read-out: Mean Trough Level of Drug): 6.66 ng/mL
concentration at 29 day (100 mg daily PO, mean (SD), read-out: Mean Trough Level of Drug): 6.03 ng/mL
SMILES: CCNCCc1ccc(CN(CC)c2cc(OC)ccc2[C@@H]2CCc3cc(O)ccc3C2)cc1 [drug, (R)-6-(2-(ethyl(4-(2-(ethylamino)ethyl)benzyl)amino)-4-methoxyphenyl)-5,6,7,8-tetrahydronaphthalen-2-ol dihydrochloride]
